Measured values taken from patent US10793840B2, “Identifying ligands for bacterial sensors” (William Marsh Rice University, priority 2015, dated 2020).

How the values were obtained:
[1] = tested on: BAD_0569/BAD_0568-CcaR TCS; details: E. coli expressing BAD_0569 and BAD_0568-CcaR, sfGFP from PcpcG2; panel of over 40 gut chemicals
From the text: Briefly, the wild type BAD_0569 SK of Bifidobacterium adolescent was expressed in E. coli. A modified cognate response regulator BAD_0568 was simultaneously expressed in E. coli, wherein the native DBD from the Bifidobacterium adolescentis RR was replaced with that of the DBD from the well-characterized OmpR-PhoB family RR CcaR. When phosphorylated, native CcaR activates transcription from PcpcG2, or its derivatives. A superfolder GFP reporter gene (a.k.a. GFP) was expressed from PcpcG2 in the same E. coli. Anydrotetracyline (aTc) induces expression of the BAD_0568-CcaR hybrid, which activates PcpcG2 transcription and thus GFP expression.
We then tested E. coli expressing the hybrid BAD_0569/8 TCS (i.e. BAD_0569 and BAD_0568-CcaR with sfGFP expressed from PcpcG2) in the presence of over 40 chemicals previously found to be enriched in the large intestines of germ-free mice made to carry gut bacteria of obese humans, but not found to be enriched in those mice carrying the gut bacteria of their lean twins.

NarL / PdcuS promoter = details: PdcuS promoter repressed by phosphorylated NarL, sfGFP; cited from earlier work

Structure (SMILES) | response of rewired BAD_0569/8 TCS (sfGFP reporter) to the chemical [1] | sensitivity of the sensor (NarL / PdcuS promoter)
CSCC[C@H](N)C(=O)O [methionine] | largest response | –
O=[N+]([O-])O [nitrate] | – | The sensitivity of the sensor is in the sub-mM to mM range for nitrate.
